Assay results reported in ChEMBL document CHEMBL3585282, “Discovery of Highly Isoform Selective Thiazolopiperidine Inhibitors of Phosphoinositide 3-Kinase γ” (J Med Chem, 2015).
Converted amounts (≈) assume the structure as drawn.

How the values were obtained:
[1] = Stability in dog liver microsomes assessed as compound remaining at 5 uM in presence of NADPH after 30 mins by LC-MS/MS method; type: ADME, Canis lupus familiaris; conditions: read-out: Stability
[2] = Stability in human liver microsomes assessed as compound remaining at 5 uM in presence of NADPH after 30 mins by LC-MS/MS method; type: ADME; conditions: read-out: Stability
[3] = Stability in rat liver microsomes assessed as compound remaining at 5 uM in presence of NADPH after 30 mins by LC-MS/MS method; type: ADME; conditions: read-out: Stability
[4] = Thermodynamic solubility in water at 5 mg incubated for 48 hrs by HPLC method; type: physicochemical; conditions: read-out: Therm_solubility
[5] = Thermodynamic solubility in FaSSIF at pH 6.5 at 5 mg incubated for 48 hrs by HPLC method; type: physicochemical; conditions: read-out: Therm_solubility

SMILES | remaining at 0.5 h, 5 µM [1] [%] | remaining at 0.5 h, 5 µM [2] [%] | remaining at 0.5 h, 5 µM [3] [%] | solubility thermodynamic at 48 h [4] [µg/mL] | solubility thermodynamic at 48 h [5] [µg/mL]
COc1cc(N2CCc3nc(NC(=O)NCCc4cn(CC(F)F)cn4)sc3C2)cnc1Cl | 84 | 61 | 100 | – | –
COc1cncc(N2CCc3nc(NC(C)=O)sc3C2)c1 | – | – | – | 12.1 (≈ 39.8 µM) | 9.4 (≈ 30.9 µM)
